Reference: PMC3314994, “Inhibitors of human histone deacetylase with potent activity against the African trypanosome Trypanosoma brucei” (Bioorganic & Medicinal Chemistry Letters, 2012)

Legend:
Trypanosoma brucei (BSF) = assay: Growth inhibition of cultured bloodstream form T. brucei; assay type: cell-based, Trypanosoma brucei (strain 427); settings: Trypanosoma brucei, cultured bloodstream form, strain 427, triplicate; for IC50: read-out: Trypanosoma brucei (BSF) IC50 ± SD; for IC90: read-out: Trypanosoma brucei (BSF) IC90 ± SD
Experimental: Treatment of parasites with micromolar levels of these inhibitors could result in cell death within 4 h (Fig. 1).
[30] Growth inhibitory properties against cultured bloodstream form T. brucei were determined as described previously.[29] Experiments were performed in triplicate and data are presented as ±SD.

HDAC (FDL_HELA) = assay: Histone deacetylase activity in HeLa cell lysates (fluorescent assay kit); assay type: biochemical, Human; settings: lysed HeLa cells; read-out: HDAC (FDL_HELA) IC50 ± SD
Experimental: (§1) The compounds from the different structural subclasses were all active as HDAC inhibitors, measured in an assay of enzymes in HeLa cell lysates.[23,24] HeLa cells express multiple HDACs, including HDAC 1, 2, 3, 4, and 8.[25–27] […] To further characterise the compounds with respect to HDAC selectivity, we determined their inhibitory properties against recombinant expressed human HDACs (rhHDAC 1–4, 6–9).[28]
[24] Histone deacetylase activity was determined in lysed Human cervix epithelial cancer HeLa cells. To determine the IC50 of test compound a commercially available fluorescent assay kit was used employing an acetylated enzyme substrate.[23]

rhHDAC 1 = rhHDAC 1 (Homo sapiens, UniProt Q13547); assay: Inhibition of recombinant human HDAC isoforms; assay type: biochemical; settings: mean ± SD, triplicate per plate, min two plates; read-out: ED50 rhHDAC 1
Sequence of rhHDAC 1 (Q13547 whole entry, canonical isoform): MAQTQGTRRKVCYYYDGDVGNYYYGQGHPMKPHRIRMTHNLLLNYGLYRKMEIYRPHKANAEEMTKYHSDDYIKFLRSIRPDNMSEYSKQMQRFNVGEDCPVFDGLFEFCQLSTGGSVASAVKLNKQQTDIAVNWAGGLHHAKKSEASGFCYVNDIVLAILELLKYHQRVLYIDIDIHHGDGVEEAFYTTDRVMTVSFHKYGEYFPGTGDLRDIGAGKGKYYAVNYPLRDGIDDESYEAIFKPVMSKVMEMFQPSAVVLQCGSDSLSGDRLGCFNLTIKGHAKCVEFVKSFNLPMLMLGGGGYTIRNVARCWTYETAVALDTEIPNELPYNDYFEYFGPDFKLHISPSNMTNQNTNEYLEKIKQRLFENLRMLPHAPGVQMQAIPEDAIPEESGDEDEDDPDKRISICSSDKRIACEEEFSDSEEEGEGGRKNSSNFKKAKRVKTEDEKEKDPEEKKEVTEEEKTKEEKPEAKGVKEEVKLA
Excerpt: as §1

rhHDAC 2 = rhHDAC 2 (Homo sapiens, UniProt Q92769); assay: Inhibition of recombinant human HDAC isoforms; assay type: biochemical; settings: mean ± SD, triplicate per plate, min two plates; read-out: ED50 rhHDAC 2
Sequence of rhHDAC 2 (Q92769 whole entry, canonical isoform): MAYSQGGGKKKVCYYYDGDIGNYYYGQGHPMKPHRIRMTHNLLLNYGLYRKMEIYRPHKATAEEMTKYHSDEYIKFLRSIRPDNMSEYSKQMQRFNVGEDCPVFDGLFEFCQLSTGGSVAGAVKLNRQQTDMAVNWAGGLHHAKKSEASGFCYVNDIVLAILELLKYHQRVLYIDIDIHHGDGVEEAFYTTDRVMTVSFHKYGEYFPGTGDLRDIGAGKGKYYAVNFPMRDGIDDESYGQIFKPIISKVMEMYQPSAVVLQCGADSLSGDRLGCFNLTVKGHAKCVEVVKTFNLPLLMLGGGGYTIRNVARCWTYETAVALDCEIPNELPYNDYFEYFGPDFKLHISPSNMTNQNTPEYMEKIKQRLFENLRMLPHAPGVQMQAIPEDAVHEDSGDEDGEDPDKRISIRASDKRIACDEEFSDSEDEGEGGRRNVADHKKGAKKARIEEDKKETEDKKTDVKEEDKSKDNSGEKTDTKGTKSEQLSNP
Excerpt: as §1

rhHDAC 3 = rhHDAC 3 (Homo sapiens, UniProt O15379); assay: Inhibition of recombinant human HDAC isoforms; assay type: biochemical; settings: mean ± SD, triplicate per plate, min two plates; read-out: ED50 rhHDAC 3
Sequence of rhHDAC 3 (O15379 whole entry, canonical isoform): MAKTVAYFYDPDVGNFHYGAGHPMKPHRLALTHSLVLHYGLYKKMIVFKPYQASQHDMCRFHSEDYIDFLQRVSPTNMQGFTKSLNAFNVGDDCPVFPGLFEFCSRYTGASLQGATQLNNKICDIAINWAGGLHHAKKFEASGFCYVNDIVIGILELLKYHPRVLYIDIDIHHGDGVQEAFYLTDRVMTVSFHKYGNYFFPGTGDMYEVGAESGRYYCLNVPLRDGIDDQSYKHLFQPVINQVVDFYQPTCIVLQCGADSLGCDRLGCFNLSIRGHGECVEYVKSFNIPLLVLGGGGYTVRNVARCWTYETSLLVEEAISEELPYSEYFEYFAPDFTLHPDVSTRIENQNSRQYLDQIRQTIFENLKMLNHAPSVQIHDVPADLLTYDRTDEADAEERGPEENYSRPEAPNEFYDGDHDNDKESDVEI
Sequence of rhHDAC 3 (Q9Y618 395-489 partner limits assumed): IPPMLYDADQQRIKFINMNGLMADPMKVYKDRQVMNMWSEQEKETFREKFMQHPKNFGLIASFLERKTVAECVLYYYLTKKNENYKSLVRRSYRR
Excerpt: as §1

rhHDAC 6 = molecular target: T1, rhHDAC 6 (Homo sapiens, UniProt Q9UBN7); assay: Inhibition of recombinant human HDAC isoforms; assay type: biochemical; settings: mean ± SD, triplicate per plate, min two plates; read-out: ED50 rhHDAC 6
T1 sequence (Q9UBN7 1-1215): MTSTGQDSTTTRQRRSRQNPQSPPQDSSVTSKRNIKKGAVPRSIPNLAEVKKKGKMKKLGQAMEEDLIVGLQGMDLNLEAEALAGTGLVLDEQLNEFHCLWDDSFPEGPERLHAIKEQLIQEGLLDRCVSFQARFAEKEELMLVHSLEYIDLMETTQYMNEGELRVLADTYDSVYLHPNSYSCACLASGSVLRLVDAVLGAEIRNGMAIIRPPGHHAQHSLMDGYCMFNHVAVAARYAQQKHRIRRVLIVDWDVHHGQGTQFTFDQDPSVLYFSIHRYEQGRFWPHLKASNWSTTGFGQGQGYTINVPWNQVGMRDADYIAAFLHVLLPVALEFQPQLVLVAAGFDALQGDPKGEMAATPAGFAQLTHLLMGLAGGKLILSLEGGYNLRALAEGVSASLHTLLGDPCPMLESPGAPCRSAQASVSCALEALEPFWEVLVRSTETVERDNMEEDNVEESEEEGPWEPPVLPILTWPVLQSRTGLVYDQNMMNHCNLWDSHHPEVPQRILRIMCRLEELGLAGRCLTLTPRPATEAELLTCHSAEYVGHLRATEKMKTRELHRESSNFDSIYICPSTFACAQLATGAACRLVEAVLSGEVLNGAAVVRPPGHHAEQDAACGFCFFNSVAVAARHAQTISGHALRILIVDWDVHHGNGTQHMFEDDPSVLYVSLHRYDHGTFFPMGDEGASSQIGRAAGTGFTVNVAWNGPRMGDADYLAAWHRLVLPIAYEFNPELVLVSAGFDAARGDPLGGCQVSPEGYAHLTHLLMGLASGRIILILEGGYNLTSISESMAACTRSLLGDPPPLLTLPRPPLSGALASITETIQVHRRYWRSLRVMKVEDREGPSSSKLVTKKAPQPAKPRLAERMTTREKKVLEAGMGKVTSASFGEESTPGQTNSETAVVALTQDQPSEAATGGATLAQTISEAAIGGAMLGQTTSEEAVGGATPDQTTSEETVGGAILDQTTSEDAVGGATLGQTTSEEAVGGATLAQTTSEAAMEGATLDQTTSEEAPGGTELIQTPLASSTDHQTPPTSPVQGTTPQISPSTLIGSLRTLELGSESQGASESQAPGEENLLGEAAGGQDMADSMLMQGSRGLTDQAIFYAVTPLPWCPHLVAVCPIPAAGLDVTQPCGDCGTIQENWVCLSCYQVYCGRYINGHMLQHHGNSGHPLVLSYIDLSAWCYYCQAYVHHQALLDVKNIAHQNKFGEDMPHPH
Excerpt: as §1

rhHDAC 8 = molecular target: T2, rhHDAC 8 (Homo sapiens, UniProt Q9BY41); assay: Inhibition of recombinant human HDAC isoforms; assay type: biochemical; settings: mean ± SD, triplicate per plate, min two plates; read-out: ED50 rhHDAC 8
T2 sequence (Q9BY41 1-377): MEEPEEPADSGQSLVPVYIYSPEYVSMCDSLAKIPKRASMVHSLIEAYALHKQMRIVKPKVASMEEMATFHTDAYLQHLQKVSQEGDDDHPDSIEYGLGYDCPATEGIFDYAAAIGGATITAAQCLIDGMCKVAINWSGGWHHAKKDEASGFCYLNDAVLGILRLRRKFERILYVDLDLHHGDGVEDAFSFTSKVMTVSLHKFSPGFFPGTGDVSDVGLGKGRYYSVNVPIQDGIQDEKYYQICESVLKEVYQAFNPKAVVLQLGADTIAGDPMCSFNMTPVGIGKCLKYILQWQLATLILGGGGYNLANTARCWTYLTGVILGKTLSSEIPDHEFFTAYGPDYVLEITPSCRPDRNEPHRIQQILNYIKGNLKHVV
Excerpt: as §1

rhHDAC 9 = rhHDAC 9 (Homo sapiens, UniProt Q9UKV0); assay: Inhibition of recombinant human HDAC isoforms; assay type: biochemical; settings: mean ± SD, triplicate per plate, min two plates; read-out: ED50 rhHDAC 9
Sequence of rhHDAC 9 (Q9UKV0 whole entry, canonical isoform): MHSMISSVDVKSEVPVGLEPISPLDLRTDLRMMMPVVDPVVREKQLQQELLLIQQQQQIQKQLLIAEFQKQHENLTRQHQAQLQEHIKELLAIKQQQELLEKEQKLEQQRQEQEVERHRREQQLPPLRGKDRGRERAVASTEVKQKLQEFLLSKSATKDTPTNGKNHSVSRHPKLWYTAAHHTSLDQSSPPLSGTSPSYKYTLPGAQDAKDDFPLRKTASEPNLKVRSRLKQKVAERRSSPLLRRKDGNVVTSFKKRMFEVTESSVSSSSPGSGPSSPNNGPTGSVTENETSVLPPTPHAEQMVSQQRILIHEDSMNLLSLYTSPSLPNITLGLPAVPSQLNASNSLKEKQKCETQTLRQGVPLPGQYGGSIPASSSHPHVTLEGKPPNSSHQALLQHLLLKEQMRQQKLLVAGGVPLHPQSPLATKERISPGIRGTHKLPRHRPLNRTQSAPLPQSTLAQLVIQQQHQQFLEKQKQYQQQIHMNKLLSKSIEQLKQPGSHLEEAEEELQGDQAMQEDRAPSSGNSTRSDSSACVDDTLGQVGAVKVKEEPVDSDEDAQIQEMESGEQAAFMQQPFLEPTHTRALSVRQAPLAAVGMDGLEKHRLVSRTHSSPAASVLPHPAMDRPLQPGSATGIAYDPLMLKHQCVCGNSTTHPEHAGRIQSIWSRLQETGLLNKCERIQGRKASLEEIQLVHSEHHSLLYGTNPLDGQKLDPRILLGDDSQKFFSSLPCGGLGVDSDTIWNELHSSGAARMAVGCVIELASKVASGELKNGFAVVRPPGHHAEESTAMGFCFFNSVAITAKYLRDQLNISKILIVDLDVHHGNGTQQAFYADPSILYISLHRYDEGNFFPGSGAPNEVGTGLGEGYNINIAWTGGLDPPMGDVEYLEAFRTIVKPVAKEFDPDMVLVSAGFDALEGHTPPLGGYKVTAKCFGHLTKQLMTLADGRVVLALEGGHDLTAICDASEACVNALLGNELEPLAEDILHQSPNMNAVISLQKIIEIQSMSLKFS
Excerpt: as §1

rhHDAC 4 = rhHDAC 4 (Homo sapiens, UniProt P56524); assay: Inhibition of recombinant human HDAC isoforms; assay type: biochemical; settings: mean ± SD, triplicate per plate, min two plates; read-out: ED50 rhHDAC 4
Sequence of rhHDAC 4 (P56524 whole entry, canonical isoform): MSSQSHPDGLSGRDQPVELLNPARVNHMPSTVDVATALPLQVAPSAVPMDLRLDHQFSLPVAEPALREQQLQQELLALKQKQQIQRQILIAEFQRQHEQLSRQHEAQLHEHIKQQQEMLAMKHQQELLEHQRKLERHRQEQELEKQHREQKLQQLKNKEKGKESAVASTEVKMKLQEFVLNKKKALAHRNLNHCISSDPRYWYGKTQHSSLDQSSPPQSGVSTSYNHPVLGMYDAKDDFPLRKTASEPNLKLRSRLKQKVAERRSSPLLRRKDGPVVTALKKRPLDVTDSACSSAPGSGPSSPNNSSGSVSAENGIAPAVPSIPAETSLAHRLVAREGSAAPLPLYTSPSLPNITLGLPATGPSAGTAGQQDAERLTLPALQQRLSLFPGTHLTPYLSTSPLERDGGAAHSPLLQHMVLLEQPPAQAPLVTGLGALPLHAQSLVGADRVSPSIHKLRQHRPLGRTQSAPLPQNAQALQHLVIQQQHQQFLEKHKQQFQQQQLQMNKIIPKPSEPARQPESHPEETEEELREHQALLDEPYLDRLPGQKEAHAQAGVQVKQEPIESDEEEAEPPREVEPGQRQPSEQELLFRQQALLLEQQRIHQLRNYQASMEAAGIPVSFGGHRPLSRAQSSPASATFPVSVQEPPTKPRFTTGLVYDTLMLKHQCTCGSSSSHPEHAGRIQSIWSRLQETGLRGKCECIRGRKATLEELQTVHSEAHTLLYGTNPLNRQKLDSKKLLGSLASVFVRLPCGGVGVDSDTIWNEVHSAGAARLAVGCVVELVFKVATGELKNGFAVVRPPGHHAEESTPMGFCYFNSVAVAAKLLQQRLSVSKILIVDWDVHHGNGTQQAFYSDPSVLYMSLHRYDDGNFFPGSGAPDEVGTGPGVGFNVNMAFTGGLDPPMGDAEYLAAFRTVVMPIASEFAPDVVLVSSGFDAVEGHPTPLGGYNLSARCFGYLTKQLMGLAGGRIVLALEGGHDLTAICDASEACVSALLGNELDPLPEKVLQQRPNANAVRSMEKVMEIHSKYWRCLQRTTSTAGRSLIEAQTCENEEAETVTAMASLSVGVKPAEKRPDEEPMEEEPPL
Excerpt: as §1

rhHDAC 7 = molecular target: T3, rhHDAC 7 (Homo sapiens, UniProt Q8WUI4); assay: Inhibition of recombinant human HDAC isoforms; assay type: biochemical; settings: mean ± SD, triplicate per plate, min two plates; read-out: ED50 rhHDAC 7
T3 sequence (Q8WUI4 1-952): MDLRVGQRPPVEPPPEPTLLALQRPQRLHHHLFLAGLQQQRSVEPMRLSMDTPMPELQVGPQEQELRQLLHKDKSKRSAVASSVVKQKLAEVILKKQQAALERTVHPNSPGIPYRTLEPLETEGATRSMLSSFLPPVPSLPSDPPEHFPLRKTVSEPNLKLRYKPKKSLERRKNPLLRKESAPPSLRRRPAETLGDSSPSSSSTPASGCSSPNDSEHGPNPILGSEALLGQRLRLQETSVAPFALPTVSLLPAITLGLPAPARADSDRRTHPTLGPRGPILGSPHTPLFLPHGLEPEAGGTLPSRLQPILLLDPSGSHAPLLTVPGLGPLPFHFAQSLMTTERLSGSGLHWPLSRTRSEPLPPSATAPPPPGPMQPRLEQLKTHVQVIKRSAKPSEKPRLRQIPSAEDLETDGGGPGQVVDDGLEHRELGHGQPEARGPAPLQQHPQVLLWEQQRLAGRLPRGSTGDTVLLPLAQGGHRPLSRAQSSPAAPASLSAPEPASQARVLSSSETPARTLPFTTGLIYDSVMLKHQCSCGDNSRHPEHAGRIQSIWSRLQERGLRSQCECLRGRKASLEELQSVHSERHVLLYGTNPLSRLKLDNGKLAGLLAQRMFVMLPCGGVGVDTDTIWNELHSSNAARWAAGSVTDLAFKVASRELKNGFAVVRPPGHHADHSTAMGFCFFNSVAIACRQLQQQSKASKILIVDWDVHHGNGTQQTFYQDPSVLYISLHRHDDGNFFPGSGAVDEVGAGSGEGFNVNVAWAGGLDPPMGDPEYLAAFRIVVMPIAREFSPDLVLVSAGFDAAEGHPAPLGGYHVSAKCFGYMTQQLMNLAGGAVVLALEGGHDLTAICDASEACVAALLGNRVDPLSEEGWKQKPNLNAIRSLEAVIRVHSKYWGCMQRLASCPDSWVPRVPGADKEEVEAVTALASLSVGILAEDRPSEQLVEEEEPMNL
Excerpt: as §1

SMILES	IC50 (Trypanosoma brucei (BSF)) [nM]	IC90 (Trypanosoma brucei (BSF)) [nM]	IC50 (HDAC (FDL_HELA)) [nM]	IC50 (rhHDAC 1) [nM]	IC50 (rhHDAC 2) [nM]	IC50 (rhHDAC 3) [nM]	IC50 (rhHDAC 6) [nM]	IC50 (rhHDAC 8) [nM]	IC50 (rhHDAC 9) [nM]	IC50 (rhHDAC 4) [nM]	IC50 (rhHDAC 7) [nM]
COc1ccccc1N1CCN(S(=O)(=O)c2cccc(/C=C/C(=O)NO)c2)CC1 [Compound 12]	198 ± 5	265 ± 5	22 ± 2	53 ± 3	310 ± 28	96 ± 46	305 ± 19	328 ± 193	145 ± 151	–	–
COc1cccc(NS(=O)(=O)c2cccc(/C=C/C(=O)NO)c2)c1 [Compound 13]	198 ± 21	333 ± 28	22 ± 2	–	–	–	–	–	–	–	–
O=C(/C=C/c1cccc(S(=O)(=O)N2CCN(Cc3ccc4c(c3)OCO4)CC2)c1)NO [Compound 14]	261 ± 38	485 ± 43	269 ± 87	–	–	–	–	–	–	–	–
O=C(/C=C/c1cccc(S(=O)(=O)Nc2cccc(F)c2)c1)NO [Compound 15]	343 ± 17	710 ± 17	20 ± 4	44 ± 0.1	221 ± 141	89 ± 32	35 ± 16	211 ± 42	109 ± 56	65 ± 20	216 ± 133
O=C(/C=C/c1ccc2ccccc2n1)NO [Compound 16]	353 ± 16	648 ± 20	22	–	–	–	–	–	–	–	–
O=C(/C=C/c1cccc(S(=O)(=O)Nc2ccc(Cl)cc2)c1)NO [Compound 17]	368 ± 23	651 ± 83	42 ± 11	–	–	–	–	–	–	–	–
COc1ccc(NS(=O)(=O)c2cccc(/C=C/C(=O)NO)c2)cc1 [Compound 18]	606 ± 81	956 ± 35	13 ± 5	19 ± 1	105 ± 64	23 ± 2	36 ± 3	167 ± 72	26 ± 3	33 ± 1	42 ± 22
COc1ccc(NS(=O)(=O)c2cccc(/C=C/C(=O)NO)c2)cc1OC [Compound 19]	927 ± 57	2150 ± 140	23 ± 5	–	–	–	–	–	–	–	–
O=C(/C=C/c1ccc2c(c1)OCO2)NCCCCCC(=O)NO [Compound 21]	> 10000	–	29 ± 16	–	–	–	–	–	–	–	–
O=C(/C=C/c1ccccc1)NCCCCCC(=O)NO [Compound 22]	> 10000	–	20 ± 2	–	–	–	–	–	–	–	–
CC(/C=C/c1ccccc1)=C\C(=O)NCCCCCC(=O)NO [Compound 23]	> 10000	–	–	–	–	–	–	–	–	–	–
CN(CCCCCC(=O)NO)C(=O)/C=C/C=C/c1ccccc1 [Compound 24]	> 10000	–	–	–	–	–	–	–	–	–	–
